Data as given in patent US20140287918A1, “USE OF PEUMUS BOLDUS EXTRACT OBTAINED BY MEANS OF IN VIVO CULTURE AND HAVING ANTI-BOTRYTIS, ALLELOPATHIC AND ANTIOXIDANT ACTIVITY” (UNIVERSIDAD DE SANTIAGO DE CHILE, priority 2011, published 2014).
≈ marks a conversion by molar mass, not a printed value.

Test: antioxidant capacity (scavenging of free radical DPPH)
Settings: main component of the extract
Source text: The extract was obtained by sonication in ethanol 85% at a ratio of 1 g of tissue in 10 volumes of solvent.

COc1cc(C(=O)O)cc(OC)c1O [syringic acid]
EC50 (antioxidant capacity): 170 µg/mL (≈ 858 µM)
